US11530210B2, “Substituted heteroaromatic pyrazolo-pyridines and their use as GLUN2B receptor modulators” (JANSSEN PHARMACEUTICA NV, priority 2019, dated 2022)

Experiments:
[1] = Liver microsomal stability (extraction ratio); format: in vitro ADME, mouse, rat, and human; conditions: test compound 1 μM, 0.5 mg/mL liver microsomes, NADPH 1 mM, 37° C.; ER = predicted hepatic clearance / species blood flow; species not given
Protocol: Protocol for Liver Microsomal Stability (Extraction Ratio)
Liver Microsomal Stability. Microsomal stability studies (Chrovian et al, “1H-Pyrrolo[3,2-b]pyridine GluN2B-Selective Negative Allosteric Modulators”. ACS Med Chem Lett. 2019 Jan. 10; 10(3):261-266) were conducted on a Biomek® FX Robotic Liquid Handling Workstation (Beckman Coulter, Brea, Calif.), which consists of a 96-channel pipette head, a 12-postion workstation deck, and a plate incubator. Test compounds (1 μm) were spiked in a reaction mix consisting of 100 mM potassium phosphate buffer (pH 7.4), 3 mM MgCl2, and 0.5 mg/mL liver microsomes from mouse, rat, and human (BD Gentest). The reaction was brought to 37° C. and initiated by adding NADPH to a final concentration of 1 mM. After mixing on the platedeck, 50 µL aliquots were excised from the reaction plate at 0, 5, 10, 20, 40, and 60 min and quenched with four volumes of acetonitrile spiked with […] of the internal standard phenytoin. Quenched plates were centrifuged at 5700 rpm for 10 min at 4° C., and supernatant was diluted 1:3 in water before LC/MS/MS analysis. The compound half-lives were derived from plots of the ln of percent remaining compound over time to determine the intrinsic clearance. The predicted hepatic clearance was derived from the intrinsic clearance value using equations from the well-stirred model (Current Drug Metabolism, 2008, 9, 940-951), where no correction was made plasma protein binding and the blood to plasma concentration ratio was assumed to be one.

[2] = molecular target: T1, human GluN1/GluN2B NMDA receptors (Homo sapiens, UniProt Q13224); test: Calcium flux (FLIPR) assay on cloned human NR1/GluN2B ion channels expressed in mammalian cells (standard and HTS variants); format: cell-based; conditions: cells expressing human GluN1/GluN2B, glutamate and glycine co-agonists
T1 construct: expressed in transfected cells
T1 sequence (Q13224 27-1484, other chains not shown): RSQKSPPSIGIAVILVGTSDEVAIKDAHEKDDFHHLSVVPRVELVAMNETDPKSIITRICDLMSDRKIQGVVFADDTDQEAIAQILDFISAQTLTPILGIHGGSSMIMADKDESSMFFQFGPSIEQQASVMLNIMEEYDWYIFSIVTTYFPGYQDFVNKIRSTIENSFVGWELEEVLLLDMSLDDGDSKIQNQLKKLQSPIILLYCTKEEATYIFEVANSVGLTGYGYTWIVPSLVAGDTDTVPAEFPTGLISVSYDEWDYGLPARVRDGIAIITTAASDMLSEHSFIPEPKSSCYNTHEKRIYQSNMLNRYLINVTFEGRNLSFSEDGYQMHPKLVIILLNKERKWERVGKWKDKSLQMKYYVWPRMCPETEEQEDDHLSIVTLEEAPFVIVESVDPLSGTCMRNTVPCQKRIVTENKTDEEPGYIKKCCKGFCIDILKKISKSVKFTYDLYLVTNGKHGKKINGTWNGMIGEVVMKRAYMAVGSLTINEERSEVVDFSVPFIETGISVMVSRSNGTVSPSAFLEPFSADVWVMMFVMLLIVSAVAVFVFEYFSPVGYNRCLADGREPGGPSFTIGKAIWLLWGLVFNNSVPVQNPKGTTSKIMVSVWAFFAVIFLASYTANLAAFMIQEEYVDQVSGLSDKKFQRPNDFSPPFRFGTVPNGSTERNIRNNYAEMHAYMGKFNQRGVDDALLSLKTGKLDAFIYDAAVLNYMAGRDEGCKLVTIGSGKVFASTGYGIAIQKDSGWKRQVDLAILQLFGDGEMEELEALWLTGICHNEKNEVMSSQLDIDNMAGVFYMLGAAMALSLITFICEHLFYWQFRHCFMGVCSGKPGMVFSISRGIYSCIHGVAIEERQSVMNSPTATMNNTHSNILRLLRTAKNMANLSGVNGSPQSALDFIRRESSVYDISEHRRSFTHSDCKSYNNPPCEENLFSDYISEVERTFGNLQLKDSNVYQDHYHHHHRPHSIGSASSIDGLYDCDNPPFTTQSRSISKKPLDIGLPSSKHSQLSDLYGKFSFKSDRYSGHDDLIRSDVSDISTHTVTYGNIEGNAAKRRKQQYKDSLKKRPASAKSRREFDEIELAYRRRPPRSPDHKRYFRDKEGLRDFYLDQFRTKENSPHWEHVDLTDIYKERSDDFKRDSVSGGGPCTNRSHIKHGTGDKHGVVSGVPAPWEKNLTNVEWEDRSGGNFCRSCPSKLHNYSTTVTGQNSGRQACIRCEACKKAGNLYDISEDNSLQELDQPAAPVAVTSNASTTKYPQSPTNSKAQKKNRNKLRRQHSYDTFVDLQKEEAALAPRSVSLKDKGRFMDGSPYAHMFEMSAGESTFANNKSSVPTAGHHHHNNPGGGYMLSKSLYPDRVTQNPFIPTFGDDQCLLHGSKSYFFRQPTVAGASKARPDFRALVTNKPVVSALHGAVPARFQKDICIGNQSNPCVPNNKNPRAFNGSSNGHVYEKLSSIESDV
In short: (§1)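 Calcium influx read by FLIPR after co-agonist addition (glycine 10 μM, glutamate near EC40) following 5 min compound preincubation, with signal normalized to control wells.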

[3] = molecular target: T2, human GluN1/GluN2B NMDA receptors (Homo sapiens, UniProt Q05586+Q13224); test: as above; format: cell-based; conditions: cells expressing human GluN1/GluN2B, glutamate and glycine co-agonists
T2 construct: expressed in transfected cells
T2 sequence (Q13224 27-1484, other chains not shown): as above
In short: as §1

Row | Compound | Extraction Ratio @ 1 μM [1] | IC50 [2] | IC50 [3]
1 | Cc1nnc(Cn2ncc3ncc(-c4ccc(F)c(C(F)F)c4)cc32)o1 [Example 10, 2-[[6-[3-(Difluoromethyl)-4-fluoro-phenyl]pyrazolo[4,3-b]pyridin-1-yl]methyl]-5-methyl-1,3,4-oxadiazole] | 0.31 | 19 nM | –
2 | CC(F)(F)c1cccc(-c2cnc3cnn(Cc4cccnc4)c3c2)c1 [Example 12, 6-[3-(1,1-Difluoroethyl)phenyl]-1-(3-pyridylmethyl)pyrazolo[4,3-b]pyridine] | – | – | 26 nM
3 | CC(F)(F)c1cc(-c2cnc3cnn(Cc4cn[nH]c4)c3c2)ccc1F [Example 40, 6-[3-(1,1-Difluoroethyl)-4-fluoro-phenyl]-1-(1H-pyrazol-4-ylmethyl)pyrazolo[4,3-b]pyridine] | – | – | 825 nM
4 | COc1nnc(Cn2ncc3ncc(-c4ccc(F)c(OC(F)F)c4)cc32)s1 [Example 134, 2-[[6-[3-(difluoromethoxy)-4-fluoro-phenyl]pyrazolo[4,3-b]pyridin-1-yl]methyl]-5-methoxy-1,3,4-thiadiazole] | – | – | 1320 nM
5 | Cc1nccc(Cn2ncc3ncc(-c4ccc(F)c(OC(F)F)c4)cc32)n1 [Example 284, 6-[3-(Difluoromethoxy)-4-fluoro-phenyl]-1-[(2-methylpyrimidin-4-yl)methyl]pyrazolo[4,3-b]pyridine] | – | 942 nM | –
6 | Cc1ncc(Cn2ncc3ncc(-c4ccc(F)c(F)c4)cc32)cn1 [Example 285, 6-(3,4-Difluorophenyl)-1-[(2-methylpyrimidin-5-yl)methyl]pyrazolo[4,3-b]pyridine] | – | > 10000 nM | –
7 | Cc1ncc(Cn2ncc3ncc(-c4ccc(Cl)c(C)c4)cc32)cn1 [Example 286, 6-(4-Chloro-3-methyl-phenyl)-1-[(2-methylpyrimidin-5-yl)methyl]pyrazolo[4,3-b]pyridine] | – | 3020 nM | –
8 | Cc1cnc(Cn2ncc3ncc(-c4cccc(C(F)(F)F)c4)cc32)nc1 [Example 287, 1-[(5-Methylpyrimidin-2-yl)methyl]-6-[3-(trifluoromethyl)phenyl]pyrazolo[4,3-b]pyridine] | – | 3240 nM | –
9 | COc1cc(Cn2ncc3ncc(-c4ccc(F)c(OC(F)F)c4)cc32)ncn1 [Example 289, 6-[3-(Difluoromethoxy)-4-fluoro-phenyl]-1-[(6-methoxypyrimidin-4-yl)methyl]pyrazolo[4,3-b]pyridine] | – | 350 nM | –
10 | COc1nccc(Cn2ncc3ncc(-c4ccc(F)c(OC(F)F)c4)cc32)n1 [Example 291, 6-[3-(Difluoromethoxy)-4-fluoro-phenyl]-1-[(2-methoxypyrimidin-4-yl)methyl]pyrazolo[4,3-b]pyridine] | – | 938 nM | –
11 | Cc1nnc(Cn2ncc3ncc(-c4ccc(F)c(C(=O)O)c4)cc32)o1 [Example 293, 2-Fluoro-5-(1-((5-methyl-1,3,4-oxadiazol-2-yl)methyl)-1H-pyrazolo[4,3-b]pyridin-6-yl)benzoic acid] | – | > 10000 nM | –
12 | [2H]c1nn(Cc2nnc(C)o2)c2cc(-c3ccc(F)c(C(F)F)c3)cnc12 [compound 297, 2-[[3-Deuterio-6-[3-(difluoromethyl)-4-fluoro-phenyl]pyrazolo [4,3-b]pyridin-1-yl]methyl]-5-methyl-1,3,4-oxadiazole] | – | – | 24 nM

Continued by falling IC50 [2], values first:

Row | Extraction Ratio @ 1 μM [1] | IC50 [2] | IC50 [3] | Compound
13 | – | 320 nM | – | COc1nccc(Cn2ncc3ncc(-c4ccc(F)c(C(F)F)c4)cc32)n1 [Example 290, 6-[3-(Difluoromethyl)-4-fluoro-phenyl]-1-[(2-methoxypyrimidin-4-yl)methyl]pyrazolo[4,3-b]pyridine]
14 | – | 182 nM | – | COc1cc(Cn2ncc3ncc(-c4ccc(F)c(C(F)F)c4)cc32)ncn1 [Example 288, 6-[3-(Difluoromethyl)-4-fluoro-phenyl]-1-[(6-methoxypyrimidin-4-yl)methyl]pyrazolo[4,3-b]pyridine]
15 | – | 170 nM | – | OCc1nnc(Cn2ncc3ncc(-c4ccc(F)c(C(F)F)c4)cc32)o1 [Example 292, (5-((6-(3-(Difluoromethyl)-4-fluorophenyl)-1H-pyrazolo[4,3-b]pyridin-1-yl)methyl)-1,3,4-oxadiazol-2-yl)methanol]
16 | 0.42 | 41 nM | – | Cc1nc(Cn2ncc3ncc(-c4ccc(F)c(C(F)F)c4)cc32)no1 [Example 97, 3-[[6-[3-(Difluoromethyl)-4-fluoro-phenyl]pyrazolo[4,3-b]pyridin-1-yl]methyl]-5-methyl-1,2,4-oxadiazole]
17 | <0.298 | 38 nM | – | Cc1nnc(Cn2nc(F)c3ncc(-c4ccc(F)c(C(F)F)c4)cc32)o1 [Example 96, 2-[[6-[3-(Difluoromethyl)-4-fluoro-phenyl]-3-fluoro-pyrazolo[4,3-b]pyridin-1-yl]methyl]-5-methyl-1,3,4-oxadiazole]
18 | 0.68 | 28 nM | – | Cc1cnc(Cn2ncc3ncc(-c4ccc(F)c(C(F)F)c4)cc32)o1 [Example 8, 2-[[6-[3-(Difluoromethyl)-4-fluoro-phenyl]pyrazolo[4,3-b]pyridin-1-yl]methyl]-5-methyl-oxazole]
19 | <0.298 | 23 nM | – | Fc1ccc(-c2cnc3cnn(Cc4cccnn4)c3c2)cc1C(F)F [Example 261, 6-[3-(Difluoromethyl)-4-fluoro-phenyl]-1-(pyridazin-3-ylmethyl)pyrazolo[4,3-b]pyridine]
20 | 0.69 | 22 nM | – | Cc1cc(Cn2ncc3ncc(-c4ccc(F)c(C(F)F)c4)cc32)on1 [Example 52, 5-[[6-[3-(Difluoromethyl)-4-fluoro-phenyl]pyrazolo[4,3-b]pyridin-1-yl]methyl]-3-methyl-isoxazole]
21 | 0.60 | 18 nM | – | Cc1nnc(Cn2ncc3ncc(-c4ccc(F)c(C(F)F)c4)cc32)s1 [Example 122, 2-[[6-[3-(Difluoromethyl)-4-fluoro-phenyl]pyrazolo[4,3-b]pyridin-1-yl]methyl]-5-methyl-1,3,4-thiadiazole]
22 | 0.57 | 14 nM | – | Fc1cncc(Cn2ncc3ncc(-c4ccc(F)c(C(F)F)c4)cc32)c1 [Example 202, 6-[3-(Difluoromethyl)-4-fluoro-phenyl]-1-[(5-fluoro-3-pyridyl)methyl]pyrazolo[4,3-b]pyridine]
23 | 0.36 | 12 nM | – | Fc1ccc(-c2cnc3cnn(Cc4cncnc4)c3c2)cc1C(F)F [Example 275, 6-[3-(Difluoromethyl)-4-fluoro-phenyl]-1-(pyrimidin-5-ylmethyl)pyrazolo[4,3-b]pyridine]
24 | 0.65 | 8 nM | – | Fc1ccc(-c2cnc3cnn(Cc4cccnc4)c3c2)cc1C(F)F [Example 198, 6-[3-(Difluoromethyl)-4-fluoro-phenyl]-1-(3-pyridylmethyl)pyrazolo[4,3-b]pyridine]
